What was measured:
Assay type in all cases: cell-based, human
LC3B and SQSTM1/p62 = assay: Immunoblot of autophagy-related proteins (LC3B, SQSTM1/p62) in U373MG cells; conditions: 50 μM pre-incubation 30 minutes, then PD 10 μM 24 hours
Description: The effects of 26 kinds of herbal medicines, which influence the expression of autophagy-related proteins (LC3B and SQSTM1/p62) in total cell lysates from U87MG and U373MG cells, […] GAPDH was used as a loading control.
The human glioma cell lines, U87MG and U373MG, were cultured respectively in RPMI-1640 (Welgene) and DMEM (Welgene, Daegu, Korea) supplemented with 10% fetal bovine serum (FBS, JR Scientific) and 1% antibiotics (Ab, Welgene). All cultures were maintained at 37° C. in a humidified incubator containing 5% CO2.
(§1) Cells treated with the concentrations and materials described in FIGS. 1-3B, 7, 8, 10, 13, 16, 18, and 20 were lysed in buffer containing 20 mM Tris-HCl (pH 7.5), 150 mM NaCl, 1 mM EDTA, 1 mM Na2EDTA, 1 mM EGTA, 1% NP-40, 1% sodium deoxycholate, 1 mM Na3VO4, 1 mM MPI, 1 mM PMSF, and PI cocktails for 15 to 20 minutes on ice. Cell lysates were separated by SDS-PAGE and transferred to nitrocellulose membranes. […] The protein bands were detected with ECL western Blotting Substrate (Thermo Fisher Scientific, Waltham, Mass., USA).
To discover novel autophagy inhibitors, 26 herbal medicines were screened by western blot analysis. […] Therefore, the effect of each herbal medicine on the change in the p62 level was evaluated, given that a rise in the amount of p62 is related to the inhibition of autophaic flux.

p-ERK = assay: Immunoblot of ERK phosphorylation, U373MG cells; conditions: 50 μM pre-incubation 30 minutes, then PD 10 μM 24 hours
Description: FIGS. 10A to 10D show the results that PD-mediated autophagy inhibition is independent of mTOR and MAPK signaling pathways. FIGS. 10A to 10C show the results in which cells were treated with PD (0 μM, 0.5 μM, 1 μM, 5 μM, and 10 μM) for 24 hours. The immunoblot analyses for p-ULK1 (Ser757), ULK1, p-S6K (Thr389), p-AKT (Ser473), ERK2, P-ERK, p-JNK1, Beclin, and ATG7 were performed using lysates from GBMs. […] Total protein extracts were analyzed by immunoblot analyses for p-ERK, LC3B, and SQSTM1. GAPDH was used as an internal control.
as §1
Previous studies have shown that PD enhances autophagy via mTOR/MAPK pathway. […] It is known that mTORC1 activation, measured by S6K phosphorylation, inhibits autophagy initiation by phosphorylating the ULK1 (Ser 757). […]

Ax1 = assay: Western blot of Ax1 expression after natural compounds, U87MG and U373MG cells; conditions: varying concentrations, 48 hours
Description: Cells were washed with PBS and dissolved using a RIPA buffer (150 mM NaCl, 1% NP-40, 0.5% DOC, 0.1% SDS, 50 mM Tris (pH 8.0), 1 mM EDTA, 1 mM PMSF, 1 mM NaF, 1 mM Na3PO4, 1 μL aprotinin, leupeptin, and pepstatin), and proteins were isolated by centrifugation at 3,000× g for 20 minutes. An equal amount (20 μg) of each of the proteins was separated by 10% sodium dodecyl sulfate-polyacrylamide gel electrophoresis (SDS-PAGE) and the proteins separated using the Trans-blot unit were transferred to a nitrocellulose (NC) membrane. The membrane to which proteins were transferred was blocked with 5% non-fat dry milk (Tris buffered saline (TBS-T) containing 0.1% Tween-20) at room temperature for 1 hour, and primary antibodies, which were diluted at a 1:1,000 concentration, were allowed to react the proteins at 4° C. for 16 hours. After washing with PBS, the resultant was allowed to react with secondary antibodies, which were diluted at a 1:5,000 concentration, at room temperature for 1 hour. A Pierce ECL Western Blotting Substrate, which also underwent a washing process, was coated onto the membrane and allowed to react in a dark room with a film, and thereby, specific protein bands were confirmed. […]

| Structure (SMILES) | levels of LC3B-II and p62 (LC3B and SQSTM1/p62) | phosphorylation of ERK (p-ERK) | expression of Ax1 (Ax1) |
| --- | --- | --- | --- |
| COc1cccc(-c2cc(=O)c3ccccc3o2)c1N [PD98095, reference compound] | did not alter | effectively inhibited | – |
| O=c1c(O)c(-c2ccc(O)c(O)c2)oc2cc(O)cc(O)c12 [quercetin] | – | – | reduced the expression of Ax1 |
